Laboratory results: ChEMBL document CHEMBL4340569, “Optimization of a small-molecule Lipid II binder” (Bioorg Med Chem Lett, 2019)
One block for each molecule: values may come before it.

Legend:
[1] = Binding affinity to bacterial lipid 2 by surface plasmon resonance assay; design: species or system Bacteria
[2] = test system: Staphylococcus aureus; experiment: Antimicrobial activity against Staphylococcus aureus ATCC […] by broth dilution method; assay type: functional; conditions: ATCC 29213
[3] = test system: Enterococcus faecium; experiment: Antimicrobial activity against Enterococcus faecium EF1509 by broth dilution method; assay type: functional
[4] = test system: Staphylococcus aureus; experiment: Antimicrobial activity against methicillin-resistant Staphylococcus aureus 1094 by broth dilution method; assay type: functional
[5] = test system: Staphylococcus aureus; experiment: Antimicrobial activity against methicillin-resistant Staphylococcus aureus HFH-30123 by broth dilution method; assay type: functional
[6] = test system: Enterococcus faecium; experiment: Antimicrobial activity against vancomycin-resistant Enterococcus faecium EF1509 by broth dilution method; assay type: functional
[7] = test system: Enterococcus faecium; experiment: Antimicrobial activity against vancomycin-resistant Enterococcus faecium F118 by broth dilution method; assay type: functional
[8] = test system: Klebsiella pneumoniae; experiment: Antimicrobial activity against carbapenemase KPC producing Klebsiella pneumoniae NR-15410 by broth dilution method; assay type: functional
[9] = test system: Klebsiella pneumoniae; experiment: Antimicrobial activity against carbapenemase KPC producing Klebsiella pneumoniae NR-15411 by broth dilution method; assay type: functional
[10] = test system: Acinetobacter baumannii; experiment: Antimicrobial activity against Acinetobacter baumannii ATCC 19606 by broth dilution method; assay type: functional; conditions: ATCC 19606 = CIP 70.34 = JCM 6841
[11] = Cytotoxicity against human HeLa cells incubated for 72 hrs; assay type: cell-based
[12] = test system: Pseudomonas aeruginosa; experiment: Antimicrobial activity against Pseudomonas aeruginosa PAO1 by broth dilution method; assay type: functional
[13] = test system: Pseudomonas aeruginosa; experiment: Antimicrobial activity against Pseudomonas aeruginosa X13273 by broth dilution method; assay type: functional
[14] = test system: Pseudomonas aeruginosa; experiment: Antimicrobial activity against Pseudomonas aeruginosa ATCC 27853 by broth dilution method; assay type: functional
[15] = Antimicrobial activity against Enterobacter cloacae ATCC 13047 by broth dilution method; assay type: functional, Enterobacter cloacae subsp. cloacae
[16] = test system: Klebsiella aerogenes; experiment: Antimicrobial activity against Klebsiella aerogenes ATCC 13048 by broth dilution method; assay type: functional
[17] = Ratio of EC50 for human HeLa cells to MIC of Enterococcus faecium; assay type: toxicity
[18] = Half life in CD1 mouse at […], iv measured after 5 mins to 14 hrs by LC/MS/MS analysis; assay type: ADME, organism-based; conditions: in vivo; for half-life: CD1, mouse
[19] = Cmax in CD1 mouse at […], iv measured after 5 mins to 14 hrs by LC/MS/MS analysis; assay type: ADME, organism-based; design: dose 2.5 mg/kg, route intravenous; conditions: in vivo
[20] = AUClast in CD1 mouse at […], iv measured after 5 mins to 14 hrs by LC/MS/MS analysis; assay type: ADME, organism-based; design: time upper 14 hr, dose 2.5 mg/kg, time lower 0.083 hr, route intravenous; conditions: in vivo
[21] = AUC (infinity) in CD1 mouse at […], iv measured after 5 mins to 14 hrs by LC/MS/MS analysis; assay type: ADME, organism-based; design: dose 2.5 mg/kg, time infinity, route intravenous; conditions: in vivo
[22] = Extrapolated AUC in CD1 mouse at […], iv measured after 5 mins to 14 hrs by LC/MS/MS analysis; assay type: ADME, organism-based; conditions: in vivo
[23] = Dose normalized AUClast in CD1 mouse at […], iv measured after 5 mins to 14 hrs by LC/MS/MS analysis; assay type: ADME, organism-based; conditions: in vivo
[24] = Volume of distribution at steady state in CD1 mouse at […], iv measured after 5 mins to 14 hrs by LC/MS/MS analysis; assay type: ADME, organism-based; conditions: in vivo; for Vd: CD1, mouse, read-out: Vdss
[25] = MRT in CD1 mouse at […], iv measured after 5 mins to 14 hrs by LC/MS/MS analysis; assay type: ADME, organism-based; conditions: in vivo
[26] = Toxicity in CD1 mouse assessed as induction of adverse clinical observations at […], iv measured after 5 mins to 14 hrs; assay type: organism-based; conditions: in vivo

Structure (SMILES): CN(C)c1ccc(/C=C/c2cc(-c3ccc(F)cc3)cc(-c3ccc(F)cc3)[o+]2)cc1.F[B-](F)(F)F
Kd [1]: 340 nM | MIC [2]: 3.9 µM | MIC [3]: 2 µM | MIC [4]: 4.42 µM | MIC [5]: 6.25 µM | MIC [6]: 1.56 µM | MIC [7]: 6.25 µM | MIC [8]: ≥ 80 µM | MIC [9]: ≥ 80 µM | MIC [10]: ≥ 80 µM | CC50 at 72 h [11]: ≥ 80 µg/mL | MIC [12]: ≥ 80 µM | MIC [13]: ≥ 80 µM | MIC [14]: ≥ 80 µM | MIC [15]: ≥ 80 µM | MIC [16]: ≥ 80 µM | selectivity ratio [17]: ≥ 80 | half-life [18]: 6.81 h | Cmax [19]: 3220 ng/mL | AUC(0-t) [20]: 565 ng·h/mL | AUC [21]: 578 ng·h/mL | %AUCextra [22]: 2.25% | AUClast/dose [23]: 56.5 ng·h/mL | Vd [24]: 46.3 L/kg | MRT ([25]; CD1, mouse, read-out: MRT): 1.74 h | Activity [26]: Non-Toxic

Structure (SMILES): ClCCN(CCCl)c1ccc(/C=C/c2cc(-c3ccc(Br)cc3)cc(-c3ccc(Br)cc3)[o+]2)cc1
MIC [2]: > 80 µM | MIC [3]: > 80 µM

Structure (SMILES): OCCN(CCO)c1ccc(/C=C/c2cc(-c3ccc(Br)cc3)cc(-c3ccc(Br)cc3)[o+]2)cc1
MIC [2]: > 80 µM | MIC [3]: > 80 µM

Structure (SMILES): CN(C)c1ccc(/C=C/c2cc(-c3ccc(Br)cc3)cc(-c3ccc(Br)cc3)[o+]2)cc1.F[B-](F)(F)F
Kd [1]: 150 nM | MIC [2]: 23.4 to 80 µM | MIC [3]: 46.8 to 80 µM | MIC [4]: 32 µM | MIC [5]: 32 µM | MIC [6]: 2.82 µM | MIC [7]: 5.65 µM | MIC [8]: ≥ 80 µM | MIC [9]: ≥ 80 µM | MIC [10]: ≥ 80 µM | CC50 at 72 h [11]: ≥ 80 µg/mL | MIC [12]: ≥ 80 µM | MIC [13]: ≥ 80 µM | MIC [14]: ≥ 80 µM | MIC [15]: ≥ 80 µM | MIC [16]: ≥ 80 µM | selectivity ratio [17]: ≥ 80 | t1/2 ([18]; mouse): 13.3 h | %AUCextra [22]: 24.3% | AUClast/dose [23]: 536 ng·h/mL | Vdss ([24]; mouse): 22.8 L/kg | MRT ([25]; mouse): 7.29 h | Activity [26]: Non-Toxic

Structure (SMILES): CN1/C(=C/C=C/c2cc(-c3ccccc3)cc(-c3ccccc3)[o+]2)C(C)(C)c2ccccc21.F[B-](F)(F)F
half-life [18]: 0.227 h | Cmax [19]: 101 ng/mL | AUC(0-t) [20]: 26.9 ng·h/mL | AUC [21]: 27.9 ng·h/mL | %AUCextra [22]: 4.38% | AUClast/dose [23]: 26.9 ng·h/mL | Vd [24]: 12.2 L/kg | MRT ([25]; CD1, mouse, read-out: MRT): 0.226 h | Activity [26]: Non-Toxic

Structure (SMILES): ClCCN(/C=C/c1cc(-c2cccc(Br)c2)cc(-c2cccc(Br)c2)[o+]1)CCCl
MIC [2]: 49.3 µM | MIC [3]: 49.3 µM

Structure (SMILES): OCCN(CCO)c1ccc(/C=C/c2cc(-c3cccc(F)c3)cc(-c3cccc(F)c3)[o+]2)cc1
Kd [1]: 310 nM | MIC [2]: 2.1 µM | MIC [3]: 3.9 µM | MIC [4]: 12.5 µM | MIC [5]: 12.5 µM | MIC [6]: 3.13 µM | MIC [7]: 12.5 µM | MIC [8]: ≥ 80 µM | MIC [9]: ≥ 80 µM | MIC [10]: ≥ 80 µM | CC50 at 72 h [11]: ≥ 80 µg/mL | MIC [12]: ≥ 80 µM | MIC [13]: ≥ 80 µM | MIC [14]: ≥ 80 µM | MIC [15]: ≥ 80 µM | MIC [16]: ≥ 80 µM | selectivity ratio [17]: 49.3

Structure (SMILES): O=C(c1ccccc1)N1CCN(c2ccc(/C=C/c3cc(-c4ccc(F)cc4)cc(-c4ccc(F)cc4)[o+]3)cc2)CC1
MIC [2]: 28.5 µM | MIC [3]: 57 µM

Structure (SMILES): CN(C)c1ccc(/C=C/c2ccc(/C=C/c3cc(-c4ccc(Br)cc4)cc(-c4ccc(Br)cc4)[o+]3)cc2)cc1
MIC [2]: > 80 µM | MIC [3]: > 80 µM

Structure (SMILES): CN1/C(=C/c2ccc(/C=C/c3cc(-c4ccc(Br)cc4)cc(-c4ccc(Br)cc4)[o+]3)cc2)C(C)(C)c2ccccc21
MIC [2]: 24.5 µM | MIC [3]: 12.2 µM

Structure (SMILES): Fc1ccc(-c2cc(/C=C/N3CCNCC3)[o+]c(-c3ccc(F)cc3)c2)cc1
Kd [1]: 6200 nM | MIC [2]: 3.8 µM | MIC [3]: 1.9 µM | MIC [4]: 6.25 µM | MIC [5]: 6.25 µM | MIC [6]: 3.13 µM | MIC [7]: 8.84 µM | MIC [8]: ≥ 80 µM | MIC [9]: ≥ 80 µM | MIC [10]: ≥ 80 µM | CC50 at 72 h [11]: ≥ 80 µg/mL | MIC [12]: ≥ 80 µM | MIC [13]: ≥ 80 µM | MIC [14]: ≥ 80 µM | MIC [15]: ≥ 80 µM | MIC [16]: ≥ 80 µM | selectivity ratio [17]: 62.6

Next, values leading:

MIC [2]: > 80 µM | MIC [3]: > 80 µM
Structure (SMILES): CC(=O)N1CCN(c2ccc(/C=C/c3cc(-c4ccc(F)cc4)cc(-c4ccc(F)cc4)[o+]3)cc2)CC1

MIC [2]: > 80 µM | MIC [3]: > 80 µM
Structure (SMILES): CN(/C=C/c1cc(-c2cccc(Br)c2)cc(-c2cccc(Br)c2)[o+]1)CCO

MIC [2]: 12.8 µM | MIC [3]: 51.4 µM
Structure (SMILES): CCC(=O)N1CCN(c2ccc(/C=C/c3cc(-c4cccc(Br)c4)cc(-c4cccc(Br)c4)[o+]3)cc2)CC1

MIC [2]: > 80 µM | MIC [3]: > 80 µM
Structure (SMILES): Brc1ccc(-c2cc(/C=C/c3ccc(N4CCOCC4)cc3)[o+]c(-c3ccc(Br)cc3)c2)cc1

MIC [2]: > 80 µM | MIC [3]: > 80 µM
Structure (SMILES): Brc1ccc(-c2cc(/C=C/c3ccc(N4CCCCC4)cc3)[o+]c(-c3ccc(Br)cc3)c2)cc1

MIC [2]: 45.1 µM | MIC [3]: 22.5 µM
Structure (SMILES): CN1/C(=C/C=C/c2cc(-c3ccc(Br)cc3)cc(-c3ccc(Br)cc3)[o+]2)C(C)(C)c2cc(Cl)ccc21

MIC [2]: > 80 µM | MIC [3]: > 80 µM
Structure (SMILES): CN(CCO)c1ccc(/C=C/c2cc(-c3ccc(Br)cc3)cc(-c3ccc(Br)cc3)[o+]2)cc1

MIC [2]: > 80 µM | MIC [3]: > 80 µM
Structure (SMILES): CCN(CC)c1ccc(/C=C/c2cc(-c3ccc(Br)cc3)cc(-c3ccc(Br)cc3)[o+]2)cc1

MIC [2]: > 80 µM | MIC [3]: > 80 µM
Structure (SMILES): CC(C)(C)OC(=O)N1CCN(c2ccc(/C=C/c3cc(-c4ccc(F)cc4)cc(-c4ccc(F)cc4)[o+]3)cc2)CC1
